According to patent publication US20210186905A1, “ENHANCING T-CELL FUNCTION AND TREATING A T-CELL DYSFUNCTIONAL DISORDER WITH A COMBINATION OF AN LSD INHIBITOR AND A PD-1 BINDING ANTAGONIST” (EpiAxis Therapeutic Pty Ltd, priority 2017, published 2021):
“Also recorded” adds a separate entry of the source. Structures can show the parent of a compound that is named as a salt.

Key:
[1] = tested on: CSV, LSD1p, SNAI1; assay: Immunofluorescence of cancer cells from primary tumor micro-environment, mesenchymal CTC signature panel; type: in vivo, mouse; conditions: cancer cells from primary TME; % change relative to vehicle control
Procedure: FIG. 2 is a graphical and photographic representation showing the efficacy of dual phenelzine sulfate (phenelzine) and anti-PD1 antibody (PD1) therapy on circulating tumor cells (CTCs) and cancer stem cells (CSC) as well as tumor burden. A. Statistics of tumor volumes on day 15 post-treatment. A Mann-Whitney non-parametric t-test was used to compare control vs other groups (*p<0.02, **p<0.008). Group A=Control, Group C: PD1 (10 mg/kg), Group D: Phenelzine (40 mg/kg), Group F: PD1+Phenelzine. Illustration of the treatment protocol is also shown. […] Representative images for each dataset are shown. […] C. […] (a) Representative images for each dataset are shown. (b) Graph represents the TCFI values for CD133 TNFI for ALDH1A and TFI for ABCB5 measured using ImageJ to select the nucleus/cytoplasm minus background (n>20 individual cells, Group A=Control, Group C: PD1 (10 mg/kg), Group D: Phenelzine (40 mg/kg), Group F: PD1+Phenelzine).
FIG. 11 is a photographic and graphical representation showing triple therapy efficacy on CTC/CSC and tumor burden. […] (b) Graph represents the TCFI values for CD133 TNFI for ALDH1A and TFI for ABCB5 measured using ImageJ to select the nucleus/cytoplasm minus background (n>20 individual cells, Group A=Control, Group B: Abraxane (30 mg/kg), Group C: anti-PD1 (10 mg/kg), Group D: Phenelzine (40 mg/kg), Group E: Abraxane+PD1, Group F: PD1+Phenelzine, Group G: Abraxane+Phenelzine, Group H: Triple Therapy). […]
(§1) A total of 2×10^5 cells were injected per mouse into mammary gland in 50 μL of phosphate buffered saline (PBS). […] Tumors were measured using calipers and the tumor volumes (mm3) were calculated using the formula (length×width2)/2. ? arvested cells from primary tumors where then cytospun ? -treated with poly-1-lysine and fixed then stored in PBS for IFA Microscopy Analysis. […] Digital images were analysed using ImageJ software (ImageJ, NIH, Bethesda, Md., USA) to determine the either the Total Nuclear Fluorescent Intensity (TNFI), the Total Cytoplasmic Fluorescent Intensity (TCFI) or total Fluorescent Intensity (TFI).

[2] = tested on: IFN-γ and TNF-α; assay: Immunofluorescence of IFN-γ and TNF-α in CD8+ T-cells; type: in vivo, mouse; conditions: IF % change
Procedure: FIG. 5 is a graphical representation showing that dual epigenetic-immunotherapy re-educates and re-programs the T-cell repertoire. A. Cells stimulated with PMA/ionomycin for 4 hours in the presence of Brefeldin A. Cells were surfaced stained with CD45, CD3, CD4, CD8, CD44, CD62L (for naïve, effector and central memory), CD25 and FoxP3 (for Tregs) and analyzed via Flow cytometry. A Mann-Whitney non-parametric t-test was used to compare control vs other groups (*p<0.05, n=2-5). […] Representative images for each dataset are shown. TNFI values for EOMES, TBET and Ki67 measured using Image) to select the nucleus minus background. […] Cells stimulated with PMA/ionomycin for 4 hours in the presence of Brefeldin A. Cell were surfaced stained with CD45, CD3, CD4, CD8 and intracellular staining of IFN-γ, IL-2 and TNF-α in the presence of Brefeldin A and analyzed via flow cytometry. […] TNFI values for TNFα and IFNγ measured using ImageJ to select the nucleus minus background. […]
A total of 2×10^5 cells were injected per mouse into mammary gland in 50 μL of phosphate buffered saline (PBS). […] Tumors were measured using calipers and the tumor volumes (mm3) were calculated using the formula (length×width2)/2. ? arvested cells from primary tumors where then cytospun ? -treated with poly-1-lysine and fixed then stored in PBS for IFA Microscopy Analysis. […]

[3] = target: LSD1 (Homo sapiens, UniProt O60341); conditions: MDA-MB-231; TNFI of LSD1p and H3k4me2
Procedure: A. MDA-MB-231 breast cancer cell line was treated with increasing doses of phenelzine sulfate (phenelzine). Immunofluorescence microscopy was performed on cells fixed and probed with primary anti-LSD1s111p and anti-H3k4me2 and DAPI. Representative images for each dataset are shown. Graph represents the TNFI values for LSD1p and H3k4me2 measured using ImageJ to select the nucleus minus background (n>20 individual cells). B. The effect of phenelzine sulfate on cell proliferation of MDA-MB-231 cells was analyzed using the WST-1 proliferation assay

[4] = tested on: EOMES, TBET and Ki67; assay: Immunofluorescence of T-cell exhaustion signature in CD8+ T-cells isolated from TME; type: in vivo, mouse; conditions: % change relative to control
Procedure: FIG. 5 is a graphical representation showing that dual epigenetic-immunotherapy re-educates and re-programs the T-cell repertoire. A. Cells stimulated with PMA/ionomycin for 4 hours in the presence of Brefeldin A. Cells were surfaced stained with CD45, CD3, CD4, CD8, CD44, CD62L (for naïve, effector and central memory), CD25 and FoxP3 (for Tregs) and analyzed via Flow cytometry. A Mann-Whitney non-parametric t-test was used to compare control vs other groups (*p<0.05, n=2-5). […] Representative images for each dataset are shown. TNFI values for EOMES, TBET and Ki67 measured using Image) to select the nucleus minus background. Graphs represent the % change of expression relative to control group for CD8^+ T-cells. (n>20 individual cells, Group A=Control, Group C: PD1 (10 mg/kg), Group D: Phenelzine (40 mg/kg), Group F: PD1+Phenelzine). C. Cells stimulated with PMA/ionomycin for 4 hours in the presence of Brefeldin A. Cell were surfaced stained with CD45, CD3, CD4, CD8 and intracellular staining of IFN-γ, IL-2 and TNF-α in the presence of Brefeldin A and analyzed via flow cytometry. A Mann-Whitney non-parametric t-test was used to compare control vs other groups (*p<0.05, **p<0.008; n=2-5). […] Representative images for each dataset are shown. TNFI values for TNFα and IFNγ measured using ImageJ to select the nucleus minus background. Graphs represent the % change of expression relative to control group for CD8^+ T-cells. […]
as §1

`NNCCc1ccccc1` (racemic) [phenelzine sulfate, (±)-2-phenylethylhydrazine] was tested, and the SNAI1 expression [1] was “strong inhibition; also recorded: stronger inhibition”, the “expression of CSV” value [1] was “strong inhibition; also recorded: stronger inhibition” and the “nuclear expression of LSD1” value [1] was “strong inhibition; also recorded: stronger inhibition”. For the same molecule, the IFN-γ expression [2] was “no significant effect”, the “nuclear axis of LSD1, as measured by H3k4me2 de-methylation” value [3] was “inhibited” and the EOMES expression [4] was “strongly inhibit”. For the same molecule, the Ki67 expression [4] was “more strongly” and the TBET expression [4] was “more strongly”.
